Laboratory results from the NIST ThermoML archive (doi:10.1016/j.jct.2012.03.016).
Several values for one entry are separate records, joined by “and”; a condition that tells them apart may be missing. Identical values can stand only once.

How the values were obtained:
[1] = Liquid, Closed cell (Static) method
[2] = excess molar enthalpy (molar enthalpy of mixing); xn = mol fraction of the nth substance listed; settings: 303.15 K, 101.3 kPa, Liquid, Calvet calorimetry

COC(C)(C)C [2-methoxy-2-methylpropane]
[1]
Settings | vapor or sublimation pressure [kPa]
263.15 K | 6.245
263.53 K | 6.4
273.15 K | 10.67
273.34 K | 10.8
283.15 K | 17.41
283.27 K | 17.6
293.15 K | 27.25
293.25 K | 27.4
303.15 K | 41.16
303.22 K | 41.2
313.15 K | 60.22
313.24 K | 60.3
323.15 K | 85.65
323.21 K | 85.8
333.15 K | 118.78
333.19 K | 119.2

CCCCOC [butyl methyl ether]
[1]
Settings | vapor or sublimation pressure
262.99 K | 3.2 kPa
263.15 K | 3.194 kPa
273.04 K | 5.7 kPa
273.15 K | 5.704 kPa
283.07 K | 9.6 kPa
283.15 K | 9.688 kPa
293.1 K | 15.6 kPa
293.15 K | 15.74 kPa
303.12 K | 24.4 kPa
303.15 K | 24.61 kPa
313.15 K | 37.17 kPa
313.16 K | 36.8 kPa and 36.9 kPa
323.15 K | 54.46 kPa
323.2 K | 54 kPa
333.15 K | 77.64 kPa
333.25 K | 74.1 kPa

C=CCCCC [hex-1-ene]
[1]
Settings | vapor or sublimation pressure [kPa]
263.15 K | 4.46
263.45 K | 4.5
273.15 K | 7.716
273.32 K | 7.7
283.15 K | 12.71
283.24 K | 12.8
293.15 K | 20.08
293.22 K | 20.1
303.15 K | 30.54
303.22 K | 30.6
313.15 K | 44.96
313.2 K | 45
323.15 K | 64.28
323.19 K | 64.4
333.15 K | 89.55
333.23 K | 89.7

CCCCOC [butyl methyl ether] + C=CCCCC
[2]
Settings | excess molar enthalpy [kcal/mol]
x2 = 0.0997 | 0.0055
x2 = 0.1966 | 0.011
x2 = 0.2897 | 0.0152
x2 = 0.3935 | 0.0193
x2 = 0.4933 | 0.0214
x2 = 0.5922 | 0.0217
x2 = 0.694 | 0.0205
x2 = 0.7912 | 0.0169
x2 = 0.8863 | 0.0105

C=CCCCC [hex-1-ene] + COC(C)(C)C
[2]
Settings | excess molar enthalpy [kcal/mol]
x1 = 0.1491 | 0.0209
x1 = 0.2162 | 0.0271
x1 = 0.3039 | 0.033
x1 = 0.4052 | 0.0369
x1 = 0.4892 | 0.0384
x1 = 0.6174 | 0.0379
x1 = 0.7128 | 0.0343
x1 = 0.788 | 0.0295
x1 = 0.8837 | 0.0198
